# Article PMC9246869, “Allosteric inhibition of PPM1D serine/threonine phosphatase via an altered conformational state” (Nature Communications, 2022)
# “And” between values parts separate entries of the source, which are not always exact repeats. Identical values can stand only once. Like-named read-outs stand apart in the source and are kept apart here.
# Legend:
# Format in all cases: binding
# PPM1DΔflap [1] = target: T1, PPM1DΔflap (Homo sapiens, UniProt O15297, DEL219-231/DEL235-284/E287S/S285N); experiment: Isothermal titration calorimetry (ITC); details: Sup Fig 5A
# T1 construct: PPM1D1–218-GGSNGS-288–420 (PPM1D∆flap); His(6)-SUMO (N, cleaved yes); made in house; host or cells: E. coli BL21 (DE3)
# T1 sequence (O15297 with tags, fused parts or gaps DEL219-231/DEL235-284/S285N/E287S): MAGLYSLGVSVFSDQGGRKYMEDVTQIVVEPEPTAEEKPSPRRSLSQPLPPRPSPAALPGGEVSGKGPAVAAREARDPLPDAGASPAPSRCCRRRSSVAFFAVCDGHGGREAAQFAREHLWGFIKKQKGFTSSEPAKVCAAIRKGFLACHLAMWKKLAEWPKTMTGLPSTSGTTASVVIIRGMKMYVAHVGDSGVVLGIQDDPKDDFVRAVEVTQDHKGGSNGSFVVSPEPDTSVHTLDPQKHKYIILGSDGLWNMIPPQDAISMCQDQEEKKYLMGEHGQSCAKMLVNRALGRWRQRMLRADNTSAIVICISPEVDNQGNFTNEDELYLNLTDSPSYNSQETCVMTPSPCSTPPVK
# Method: (§1) Assessments of the analog of GSK2830371 (analog 1d) binding to wild-type and mutant proteins were conducted using an Auto-iTC200 microcalorimeter (Malvern) (see section on synthesis of analog 1d below). The protein was dialyzed extensively into 25 mM HEPES (pH 7.4), 150 mM NaCl, 10 mM MgCl2 and 1 mM TCEP. The dialyzed protein was used to prepare fresh working solutions of protein (20 µM) and analog 1d (200 µM) in 2% DMSO (v/v) in the same buffer. Titrations were performed at 25 °C and consisted of a single initial injection of 0.4 µL, followed by 19 injections of 2 µL of compound into a sample cell containing wild-type or mutant PPM1D, with an interval of 150 s between successive injections. The reference power and stirring speed were set at […] and 1000 RPM, respectively. Heat of dilution and mixing were obtained from injections of analog 1d into ITC buffer lacking protein and subtracted from the integrated data before curve fitting. Thermodynamic data were analyzed using Origin 7.0 software and fitted by non-linear regression to the model for a single binding site.
# PPM1DΔhinge [2] = target: T2, PPM1DΔhinge (Homo sapiens, UniProt O15297, DEL155-163/G166S/M164G/T165G); experiment: Isothermal titration calorimetry (ITC); details: Sup Fig 5C
# T2 construct: PPM1D1–154-GGS-167–420 (PPM1D∆hinge); His(6)-SUMO (N, cleaved yes); made in house; host or cells: E. coli BL21 (DE3)
# T2 sequence (O15297 with tags, fused parts or gaps DEL155-163/M164G/T165G/G166S): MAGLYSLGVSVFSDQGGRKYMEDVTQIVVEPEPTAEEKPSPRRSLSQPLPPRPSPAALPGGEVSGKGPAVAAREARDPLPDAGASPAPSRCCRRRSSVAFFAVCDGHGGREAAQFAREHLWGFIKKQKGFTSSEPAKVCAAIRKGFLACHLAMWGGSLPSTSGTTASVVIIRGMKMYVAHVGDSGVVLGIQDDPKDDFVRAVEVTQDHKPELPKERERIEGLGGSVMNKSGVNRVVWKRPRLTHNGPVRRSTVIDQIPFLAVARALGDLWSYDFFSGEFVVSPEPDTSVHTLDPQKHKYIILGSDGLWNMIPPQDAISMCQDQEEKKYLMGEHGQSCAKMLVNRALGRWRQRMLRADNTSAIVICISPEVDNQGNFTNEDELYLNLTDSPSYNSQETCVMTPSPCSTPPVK
# Method: as §1
# PPM1DΔflap [3] = target: T1, PPM1DΔflap; experiment: Differential scanning fluorimetry (DSF); details: PPM1D Dflap, individual trials; in °C (unit assumed)
# Method: (§2) The purified protein constructs were mixed in the assay buffer containing 25 mM HEPES pH 7.5, 10 mM MgCl2, 150 mM NaCl. The sample preparation for the DSF assay included incubating the protein constructs (final concentration 0.2–0.4 mg/mL) with either DMSO alone (control) or with 40 µM GSK2830371 for 30 min before the addition of the Sypro orange dye (final concentration 10×). The final reaction volume of 10 µL was pipetted into a 384 multi-well clear plate (Light Cycler 480), sealed using a foil and spun down at 1000 × g for 2 min. The fluorescence emission intensity of the Sypro Orange dye was monitored in a LightCycler-480 instrument by running the Protein Melt program. The program was run in a continuous acquisition mode from 25 °C to 95 °C with a ramp rate of 0.06 °C/s (with 10 acquisitions/°C). The data (first derivative of the fluorescence signal as a function of temperature) was analyzed using the LightCycler-480 software for measuring the Tm values with and without the compound. A separate control with buffer alone and buffer with compound was run in the same plate to subtract out the potential interactions of the buffer components and/or the compound with the dye.
# PPM1DΔhinge [4] = target: T2, PPM1DΔhinge; experiment: Differential scanning fluorimetry (DSF); details: PPM1D Dhinge, in °C (unit assumed)
# Method: as §2
# [5] = ITC stoichiometry, average of 2 trials
smiles,measurement,setting,value
Cc1ncc(Cl)cc1NCc1ccc(C(=O)N[C@@H](CC2CCCC2)C(=O)NC2CC2)s1 [GSK2830371],N Average,PPM1DΔflap [1]; [5],1.11
same,DH Average,"PPM1DΔflap [1]; ITC, average of 2 trials",-14.43 kcal/mol
same,DS Average,"PPM1DΔflap [1]; ITC, average of 2 trials",-12.15 cal/mol/deg
same,Kd,"PPM1DΔflap [1]; ITC, average of 2 trials, read-out: Kd Average",11.9 nM
same,DH,"PPM1DΔflap [1]; ITC, individual trials",-14.15 kcal/mol and -14.71 kcal/mol
same,DS,"PPM1DΔflap [1]; ITC, individual trials",-11.3 cal/mol/deg and -13 cal/mol/deg
same,Kd,"PPM1DΔflap [1]; ITC, individual trials, read-out: Kd",12.2 nM and 11.5 nM
same,N Average,PPM1DΔhinge [2]; [5],0.8785
same,DH Average,"PPM1DΔhinge [2]; ITC, average of 2 trials",-3.817 kcal/mol
same,DS Average,"PPM1DΔhinge [2]; ITC, average of 2 trials",13.65 cal/mol/deg
same,DH,"PPM1DΔhinge [2]; ITC, individual trials",-3.047 kcal/mol and -4.587 kcal/mol
same,DS,"PPM1DΔhinge [2]; ITC, individual trials",16.6 cal/mol/deg and 10.7 cal/mol/deg
same,DSF melting temperature with GSK2830371,PPM1DΔflap [3],63.0141 and 62.619 and 62.5754 and 62.548
same,"DSF melting temperature with GSK2830371, Average",PPM1DΔhinge [4]; average of 4 trials,55.5129
same,DSF melting temperature with GSK2830371,PPM1DΔhinge [4]; individual trials,55.7617 and 55.9693 and 55.1773 and 55.1434
